{"source": "patent US20030235904A1", "about": "“Bacterial parts washer, composition and method of use” (Osprey Biotechnics, Inc., priority 2002, published 2003)", "key": {"[1]": {"tested_on": "Pseudomonas putida NRRL-B-18118", "experiment": "Shelf-life of the pseudomonad stored with NEODOL 91-6 (plate counts)", "assay_type": "cell-based", "description": "The Pseudomonas putida NRRL-B-18118 was stabilized in a liquid according to the method described in U.S. Pat. No. 5,980,747 to Vandenbergh. Briefly, sodium nitrate was mixed with water in an amount of 0.26 gm per 100 gm (mL) of water. This produced a 0.26% solution by weight. To this solution, Pseudomonas putida NRRL-B-18118 was added in an amount to provide a final concentration of 1.4×10^8 CFU/mL of the pseudomonad and a final concentration of nitrate of 0.13%. Optionally, a buffering amount of monoammonium phosphate was added at a ratio between about 1:1 to 125:1 sodium nitrate to monoammonium phosphate to enhance the preservation of the pseudomonad at 25° C.\nPseudomonas putida NRRL-B-18118 was stabilized in a liquid according as described in Example 1. The stabilized pseudomonads were then mixed with the ethoxylated surfactant NEODOL 91-6 at the appropriate amount to arrive at the appropriate fixed concentration. The solutions were incubated at 25° C. At various times, aliquots were removed and plated on agar plates and the colony forming units (CFU) per mL were recorded."}, "[2]": {"tested_on": "Pseudomonas putida NRRL-B-18118", "experiment": "Oxygen uptake (BOD analyzer) with NEODOL 91-6 and 1% motor oil", "assay_type": "cell-based", "set-up": "oxygen uptake: unit not given here", "settings": "for oxygen uptake: 25° C.", "description": "The assay measured oxygen uptake of Pseudomonas putida NRRL-B-18118 in the presence 0.001 to 1.0% NEODOL 91-6 and 1% motor oil in a minimal media broth. The pseudomonads were suspended at 10^8 CFU/mL and placed in a HATCH Model 2173B biological oxygen demand (BOD) analyzer at 25° C. […] was measured over a 48 hour time period."}}}
{"substance": "(C9-C11) alkyl alcohol ethoxylate (polyethyleneglycol-(C9-C11)-ether) [NEODOL 91-6]", "values": [{"measurement": "CFU/mL (time)", "setting": "[1]; 0.5% NEODOL 91-6, 25° C., 1 Month", "result": "5.0 × 10^7 CFU/mL"}, {"measurement": "CFU/mL (time)", "setting": "[1]; 0.5% NEODOL 91-6, 25° C., 3 Months", "result": "1.0 × 10^7 CFU/mL"}, {"measurement": "CFU/mL (time)", "setting": "[1]; 0.5% NEODOL 91-6, 25° C., 5 Months", "result": "3.0 × 10^7 CFU/mL"}, {"measurement": "CFU/mL (time)", "setting": "[1]; 0.5% NEODOL 91-6, 25° C., 7 Months", "result": "6.0 × 10^6 CFU/mL"}, {"measurement": "CFU/mL (time)", "setting": "[1]; 0.5% NEODOL 91-6, 25° C., Zero (h)", "result": "1.4 × 10^8 CFU/mL"}, {"measurement": "CFU/mL (time)", "setting": "[1]; 1.0% NEODOL 91-6, 25° C., 1 Month", "result": "5.0 × 10^7 CFU/mL"}, {"measurement": "CFU/mL (time)", "setting": "[1]; 1.0% NEODOL 91-6, 25° C., 3 Months", "result": "1.5 × 10^7 CFU/mL"}, {"measurement": "CFU/mL (time)", "setting": "[1]; 1.0% NEODOL 91-6, 25° C., 5 Months", "result": "1.0 × 10^7 CFU/mL"}, {"measurement": "CFU/mL (time)", "setting": "[1]; 1.0% NEODOL 91-6, 25° C., 7 Months", "result": "1.0 × 10^6 CFU/mL"}, {"measurement": "CFU/mL (time)", "setting": "[1]; 1.0% NEODOL 91-6, 25° C., Zero (h)", "result": "1.4 × 10^8 CFU/mL"}, {"measurement": "CFU/mL (time)", "setting": "[1]; 5.0% NEODOL 91-6, 25° C., 1 Month", "result": "5.0 × 10^7 CFU/mL"}, {"measurement": "CFU/mL (time)", "setting": "[1]; 5.0% NEODOL 91-6, 25° C., 3 Months", "result": "1.4 × 10^7 CFU/mL"}, {"measurement": "CFU/mL (time)", "setting": "[1]; 5.0% NEODOL 91-6, 25° C., 5 Months", "result": "1.0 × 10^7 CFU/mL"}, {"measurement": "CFU/mL (time)", "setting": "[1]; 5.0% NEODOL 91-6, 25° C., 7 Months", "result": "1.0 × 10^6 CFU/mL"}, {"measurement": "CFU/mL (time)", "setting": "[1]; 5.0% NEODOL 91-6, 25° C., Zero (h)", "result": "1.4 × 10^8 CFU/mL"}, {"measurement": "effect on shelf-life of Pseudomonas putida NRRL-B-18118", "setting": "[1]; NEODOL 91-6 0.5 to 5% in the storage solution", "result": "not adversely affected"}, {"measurement": "decrease in viability of the pseudomonads", "setting": "[1]; stored in the presence of NEODOL 91-6, over seven months", "result": "two log decrease"}, {"measurement": "oxygen uptake", "setting": "[2]; 0.001% NEODOL 91-6, 1% motor oil, 0 h", "result": 0}, {"measurement": "oxygen uptake", "setting": "[2]; 0.001% NEODOL 91-6, 1% motor oil, 12 h", "result": 40}, {"measurement": "oxygen uptake", "setting": "[2]; 0.001% NEODOL 91-6, 1% motor oil, 21 h", "result": 100}, {"measurement": "oxygen uptake", "setting": "[2]; 0.001% NEODOL 91-6, 1% motor oil, 28 h", "result": 140}, {"measurement": "oxygen uptake", "setting": "[2]; 0.001% NEODOL 91-6, 1% motor oil, 31 h", "result": 160}, {"measurement": "oxygen uptake", "setting": "[2]; 0.001% NEODOL 91-6, 1% motor oil, 48 h", "result": 200}, {"measurement": "oxygen uptake", "setting": "[2]; 0.01% NEODOL 91-6, 1% motor oil, 0 h", "result": 0}, {"measurement": "oxygen uptake", "setting": "[2]; 0.01% NEODOL 91-6, 1% motor oil, 12 h", "result": 40}, {"measurement": "oxygen uptake", "setting": "[2]; 0.01% NEODOL 91-6, 1% motor oil, 21 h", "result": 40}, {"measurement": "oxygen uptake", "setting": "[2]; 0.01% NEODOL 91-6, 1% motor oil, 28 h", "result": 60}, {"measurement": "oxygen uptake", "setting": "[2]; 0.01% NEODOL 91-6, 1% motor oil, 31 h", "result": 60}, {"measurement": "oxygen uptake", "setting": "[2]; 0.01% NEODOL 91-6, 1% motor oil, 48 h", "result": 110}, {"measurement": "oxygen uptake", "setting": "[2]; 0.1% NEODOL 91-6, 1% motor oil, 0 h", "result": 0}, {"measurement": "oxygen uptake", "setting": "[2]; 0.1% NEODOL 91-6, 1% motor oil, 12 h", "result": 20}, {"measurement": "oxygen uptake", "setting": "[2]; 0.1% NEODOL 91-6, 1% motor oil, 21 h", "result": 40}, {"measurement": "oxygen uptake", "setting": "[2]; 0.1% NEODOL 91-6, 1% motor oil, 28 h", "result": 60}, {"measurement": "oxygen uptake", "setting": "[2]; 0.1% NEODOL 91-6, 1% motor oil, 31 h", "result": 80}, {"measurement": "oxygen uptake", "setting": "[2]; 0.1% NEODOL 91-6, 1% motor oil, 48 h", "result": 110}, {"measurement": "oxygen uptake", "setting": "[2]; 0.5% NEODOL 91-6, 1% motor oil, 0 h", "result": 0}, {"measurement": "oxygen uptake", "setting": "[2]; 0.5% NEODOL 91-6, 1% motor oil, 12 h", "result": 20}, {"measurement": "oxygen uptake", "setting": "[2]; 0.5% NEODOL 91-6, 1% motor oil, 21 h", "result": 40}, {"measurement": "oxygen uptake", "setting": "[2]; 0.5% NEODOL 91-6, 1% motor oil, 28 h", "result": 50}, {"measurement": "oxygen uptake", "setting": "[2]; 0.5% NEODOL 91-6, 1% motor oil, 31 h", "result": 70}, {"measurement": "oxygen uptake", "setting": "[2]; 0.5% NEODOL 91-6, 1% motor oil, 48 h", "result": 90}, {"measurement": "oxygen uptake", "setting": "[2]; 1.0% NEODOL 91-6, 1% motor oil, 0 h", "result": 0}, {"measurement": "oxygen uptake", "setting": "[2]; 1.0% NEODOL 91-6, 1% motor oil, 12 h", "result": 10}, {"measurement": "oxygen uptake", "setting": "[2]; 1.0% NEODOL 91-6, 1% motor oil, 21 h", "result": 20}, {"measurement": "oxygen uptake", "setting": "[2]; 1.0% NEODOL 91-6, 1% motor oil, 28 h", "result": 30}, {"measurement": "oxygen uptake", "setting": "[2]; 1.0% NEODOL 91-6, 1% motor oil, 31 h", "result": 50}, {"measurement": "oxygen uptake", "setting": "[2]; 1.0% NEODOL 91-6, 1% motor oil, 48 h", "result": 80}, {"measurement": "function of the pseudomonads in the presence of NEODOL 91-6", "setting": "[2]; tested NEODOL 91-6 concentrations, 48 hour time period", "result": "remained functional"}]}
